# Earlier results as cited in patent US11123091B2, “Device and methods for treating paranasal sinus conditions” (Intersect ENT, Inc., priority 2005, dated 2021).
# System: cultured human airway epithelial cells
# Settings: for drug concentration at which dose response curves begin: beginning as low as; for EC50: read-out: EC50 levels of transcriptional response
EC50 [nM],SMILES,drug concentration at which dose response curves begin
0.1,CCC(=O)O[C@]1(C(=O)SCF)[C@H](C)C[C@H]2[C@@H]3C[C@H](F)C4=CC(=O)C=C[C@]4(C)[C@@]3(F)[C@@H](O)C[C@@]21C [fluticasone propionate],10^−12 M
0.1,C[C@@H]1C[C@H]2[C@@H]3CCC4=CC(=O)C=C[C@]4(C)[C@@]3(Cl)[C@@H](O)C[C@]2(C)[C@@]1(OC(=O)c1ccco1)C(=O)CCl [mometasone furoate],10^−12 M
